From the supplement of paper PMC8671470
± gives the standard deviation of the averaged measurements.

Columns and labels:
Details in all cases: 72 h
[1] = test system: NOMO-1
In short: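 Fifteen myeloid leukaemia lines were incubated for 72 h at 37 °C with 5% CO2 across five tenfold doses from 1 to 10,000 nM, in duplicate. ATP luminescence was normalised to vehicle and to a positive control at 10 µM and fitted with a four-parameter log-logistic model. The IC50 came from these dose–response fits.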

[2] = test system: HL-60; assay: cell viability (% survival relative to DMSO control); higher = less cytotoxic
In short: (§1)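 In 384-well plates, the full library was rescreened in duplicate on HL-60 cells in RPMI 1640 with 10% FBS, at 1–10,000 nM in five tenfold concentrations, for 72 h at 37 °C, 5% CO2. Each run also held DMSO or 100 nM of one of three metabolic inhibitors. Viability was measured by CellTiter-Glo and normalised to DMSO wells and to wells with proteasome inhibitor, present at 10 μM. Any area under the curve comes from four-parameter log-logistic fitting with drc and PharmacoGx.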

[3] = test system: BV-173; assay: cell viability (% survival relative to DMSO control, bortezomib = 0%); higher = less cytotoxic
In short: (§2)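 Fifteen myeloid leukaemia cell lines were exposed to compounds at 1, 10, 100, 1000 or 10000 nM in 384-well plates for 72 h at 37 °C and 5% CO2. Viability was read by CellTiter-Glo luminescence and normalised, with vehicle as 100% and a 10 µM positive control as 0%. Values are percent survival averaged over duplicates.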

[4] = test system: HEL; assay: as above
In short: as §2

[5] = test system: HL-60; assay: as above
In short: as §2

[6] = test system: K-562; assay: as above
In short: as §2

[7] = test system: KCL-22; assay: as above
In short: as §2

[8] = test system: KG-1; assay: as above
In short: as §2

[9] = test system: KU-812; assay: as above
In short: as §2

[10] = test system: LAMA-84; assay: as above
In short: as §2

[11] = test system: ML-2; assay: as above
In short: as §2

[12] = test system: MOLM-13; assay: as above
In short: as §2

[13] = test system: MV4-11; assay: as above
In short: as §2

[14] = test system: Mono-Mac-6; assay: as above
In short: as §2

[15] = test system: NOMO-1; assay: as above
In short: as §2

[16] = test system: SHI-1; assay: as above
In short: as §2

[17] = test system: THP-1; assay: as above
In short: as §2

[18] = test system: HL-60; assay: area under dose-response curve (viability, 1 nM-10 uM) (fraction (0-1)); higher = more sensitive
In short: as §1

O=NN(CCCl)C(=O)NCCCl [Carmustine]
IC50 (cell viability) [1]: > 10 µM | cell viability ([2]; 0.001 µM, co-treatment: AZD3965 100 nM): 95.3 ± 1.7% | cell viability ([2]; 0.001 µM, co-treatment: DMSO vehicle): 96.8 ± 3.4% | cell viability ([2]; 0.001 µM, co-treatment: GSK2194069 100 nM): 89.9 ± 1.6% | cell viability ([2]; 0.001 µM, co-treatment: pictilisib 100 nM): 86.1 ± 8.4% | cell viability ([2]; 0.01 µM, co-treatment: AZD3965 100 nM): 95 ± 12% | cell viability ([2]; 0.01 µM, co-treatment: DMSO vehicle): 102 ± 6% | cell viability ([2]; 0.01 µM, co-treatment: GSK2194069 100 nM): 97.4 ± 11% | cell viability ([2]; 0.01 µM, co-treatment: pictilisib 100 nM): 83.1 ± 1.1% | cell viability ([2]; 0.1 µM, co-treatment: AZD3965 100 nM): 99.5 ± 3.9% | cell viability ([2]; 0.1 µM, co-treatment: DMSO vehicle): 100.48 ± 0.1% | cell viability ([2]; 0.1 µM, co-treatment: GSK2194069 100 nM): 98.9 ± 2.9% | cell viability ([2]; 0.1 µM, co-treatment: pictilisib 100 nM): 110 ± 7.2% | cell viability ([2]; 1 µM, co-treatment: AZD3965 100 nM): 98.8 ± 5.9% | cell viability ([2]; 1 µM, co-treatment: DMSO vehicle): 97.8 ± 1% | cell viability ([2]; 1 µM, co-treatment: GSK2194069 100 nM): 97.5 ± 2.7% | cell viability ([2]; 1 µM, co-treatment: pictilisib 100 nM): 93.7 ± 4.2% | cell viability ([2]; 10 µM, co-treatment: AZD3965 100 nM): 100.8 ± 0.83% | cell viability ([2]; 10 µM, co-treatment: DMSO vehicle): 105 ± 3.5% | cell viability ([2]; 10 µM, co-treatment: GSK2194069 100 nM): 104 ± 9.1% | cell viability ([2]; 10 µM, co-treatment: pictilisib 100 nM): 118 ± 24% | cell viability ([3]; 1 nM): 102% | cell viability ([3]; 10 nM): 120% | cell viability ([3]; 100 nM): 105% | cell viability ([3]; 1000 nM): 95.3% | cell viability ([3]; 10000 nM): 78.5% | cell viability ([4]; 1 nM): 98.3% | cell viability ([4]; 10 nM): 114% | cell viability ([4]; 100 nM): 111% | cell viability ([4]; 1000 nM): 103% | cell viability ([4]; 10000 nM): 101% | cell viability ([5]; 1 nM): 98.8% | cell viability ([5]; 10 nM): 101% | cell viability ([5]; 100 nM): 98.1% | cell viability ([5]; 1000 nM): 97.8% | cell viability ([5]; 10000 nM): 101% | cell viability ([6]; 1 nM): 95.1% | cell viability ([6]; 10 nM): 123% | cell viability ([6]; 100 nM): 75.8% | cell viability ([6]; 1000 nM): 111% | cell viability ([6]; 10000 nM): 101% | cell viability ([7]; 1 nM): 83.1% | cell viability ([7]; 10 nM): 122% | cell viability ([7]; 100 nM): 104% | cell viability ([7]; 1000 nM): 88.8% | cell viability ([7]; 10000 nM): 97.4% | cell viability ([8]; 1 nM): 110% | cell viability ([8]; 10 nM): 114% | cell viability ([8]; 100 nM): 108% | cell viability ([8]; 1000 nM): 102% | cell viability ([8]; 10000 nM): 97.5% | cell viability ([9]; 1 nM): 99.4% | cell viability ([9]; 10 nM): 118% | cell viability ([9]; 100 nM): 114% | cell viability ([9]; 1000 nM): 98.5% | cell viability ([9]; 10000 nM): 97.1% | cell viability ([10]; 1 nM): 98.7% | cell viability ([10]; 10 nM): 93.1% | cell viability ([10]; 100 nM): 105% | cell viability ([10]; 1000 nM): 92.9% | cell viability ([10]; 10000 nM): 99.3% | cell viability ([11]; 1 nM): 104% | cell viability ([11]; 10 nM): 122% | cell viability ([11]; 100 nM): 106% | cell viability ([11]; 1000 nM): 96% | cell viability ([11]; 10000 nM): 106% | cell viability ([12]; 1 nM): 97.6% | cell viability ([12]; 10 nM): 106% | cell viability ([12]; 100 nM): 98.2% | cell viability ([12]; 1000 nM): 106% | cell viability ([12]; 10000 nM): 101% | cell viability ([13]; 1 nM): 96.3% | cell viability ([13]; 10 nM): 104% | cell viability ([13]; 100 nM): 103% | cell viability ([13]; 1000 nM): 106% | cell viability ([13]; 10000 nM): 83.4% | cell viability ([14]; 1 nM): 106% | cell viability ([14]; 10 nM): 97.8% | cell viability ([14]; 100 nM): 99.8% | cell viability ([14]; 1000 nM): 109% | cell viability ([14]; 10000 nM): 117% | cell viability ([15]; 1 nM): 102% | cell viability ([15]; 10 nM): 103% | cell viability ([15]; 100 nM): 104% | cell viability ([15]; 1000 nM): 100% | cell viability ([15]; 10000 nM): 99% | cell viability ([16]; 1 nM): 87% | cell viability ([16]; 10 nM): 109% | cell viability ([16]; 100 nM): 97.6% | cell viability ([16]; 1000 nM): 128% | cell viability ([16]; 10000 nM): 104% | cell viability ([17]; 1 nM): 97.6% | cell viability ([17]; 10 nM): 107% | cell viability ([17]; 100 nM): 102% | cell viability ([17]; 1000 nM): 101% | cell viability ([17]; 10000 nM): 98.9% | area under dose-response curve ([18]; co-treatment: AZD3965 100 nM): < 0.0301 | area under dose-response curve ([18]; co-treatment: DMSO vehicle): < 0.0301 | area under dose-response curve ([18]; co-treatment: GSK2194069 100 nM): < 0.0301 | area under dose-response curve ([18]; co-treatment: pictilisib 100 nM): < 0.0301
